Counter-ions that a name gives are not always drawn.
Legend:
EGFR [1] = target: T1, EGFR (Homo sapiens, UniProt P00533); settings: read-out: EGFR (autophosphorlyation) IC50; A431 cells, 15 minutes compound, stimulated with 100 ng/mL EGF
Protocol: (§1) Extracts were made by lysing the monolayers in 0.2 mL of boiling Laemlli buffer (2% sodium dodecyl sulfate, 5% beta-mercaptoethanol, 10% glycerol and 50 mM tris[hydroxymethyl]aminomethane (Tris), pH 6.8), and the lysates were heated to 100° C. for 5 minutes. Proteins in the lysate were separated by polyacrylamide gel electrophoresis and electrophoretically transferred to nitrocellulose. The membrane was washed once in 10 mM Tris, pH 7.2, 150 mM NaCl, 0.01% Azide (TNA), and blocked overnight in TNA containing 5% bovine serum albumin and 1% ovalbumin. The membrane was blotted for 2 hours with antiphosphotyrosine antibody (UBI, 1 μg/mL in blocking buffer) and then washed twice in TNA, once in TNA containing 0.05% Tween-20 detergent and 0.05% nonidet P-40 detergent and twice in TNA. […] Band intensities were determined with a Molecular Dynamics laser densitometer.
Duplicate sets of cells were treated with a range of concentrations of the designated compound to be tested as an inhibitor for 15 minutes. The cells were then stimulated with 100 ng/mL of EGF for 5 minutes and extracts made as described under the Western Blotting Procedure.

ErbB-2 = ErbB-2 (Homo sapiens, UniProt P04626); experiment: ErbB-2 autophosphorylation assay; type: cell-based; settings: read-out: ErbB-2 (autophosphorlyation) IC50
EGFR [2] = target: T1, EGFR; settings: A431 cells, 2 μM compound
Protocol: as §1

[3] = target: Human EGF receptor tyrosine kinase (Homo sapiens, UniProt P00533); settings: read-out: EGFR (isolated enzyme) IC50; isolated enzyme from A431 cells, 10 μM ATP
Chain of Human EGF receptor tyrosine kinase (P00533 25-1210 limits assumed): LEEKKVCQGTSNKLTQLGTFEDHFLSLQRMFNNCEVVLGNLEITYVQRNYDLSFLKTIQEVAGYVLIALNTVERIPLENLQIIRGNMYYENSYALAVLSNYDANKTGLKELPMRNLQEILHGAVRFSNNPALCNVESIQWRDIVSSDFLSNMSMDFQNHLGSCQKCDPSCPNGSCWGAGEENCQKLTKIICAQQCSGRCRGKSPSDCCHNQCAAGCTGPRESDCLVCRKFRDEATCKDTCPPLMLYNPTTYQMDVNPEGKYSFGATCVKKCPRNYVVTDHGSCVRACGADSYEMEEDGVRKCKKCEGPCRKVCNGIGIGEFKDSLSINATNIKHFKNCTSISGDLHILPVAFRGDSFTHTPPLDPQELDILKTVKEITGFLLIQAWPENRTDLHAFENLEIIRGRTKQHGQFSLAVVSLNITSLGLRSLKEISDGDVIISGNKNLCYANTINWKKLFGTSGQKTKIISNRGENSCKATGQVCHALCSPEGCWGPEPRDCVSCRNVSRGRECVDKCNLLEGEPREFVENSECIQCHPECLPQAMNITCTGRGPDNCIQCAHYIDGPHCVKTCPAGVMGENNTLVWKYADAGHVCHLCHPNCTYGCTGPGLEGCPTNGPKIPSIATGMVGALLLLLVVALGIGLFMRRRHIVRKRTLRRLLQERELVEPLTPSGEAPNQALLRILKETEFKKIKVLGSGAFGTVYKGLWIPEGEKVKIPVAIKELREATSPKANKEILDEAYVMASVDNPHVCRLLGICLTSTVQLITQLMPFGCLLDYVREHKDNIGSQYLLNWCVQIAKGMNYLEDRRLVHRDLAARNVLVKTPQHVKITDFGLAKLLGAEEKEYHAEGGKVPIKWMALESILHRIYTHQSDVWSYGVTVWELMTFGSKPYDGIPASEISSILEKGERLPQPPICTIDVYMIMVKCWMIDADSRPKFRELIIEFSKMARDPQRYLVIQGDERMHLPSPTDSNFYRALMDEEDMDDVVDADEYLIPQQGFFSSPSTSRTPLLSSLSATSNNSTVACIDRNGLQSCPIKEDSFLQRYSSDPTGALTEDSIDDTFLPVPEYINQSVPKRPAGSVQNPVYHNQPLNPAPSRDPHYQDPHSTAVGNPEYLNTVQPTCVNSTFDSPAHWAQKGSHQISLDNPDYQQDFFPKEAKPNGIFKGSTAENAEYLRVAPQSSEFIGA
Protocol: Human EGF receptor tyrosine kinase was isolated from A431 human epidermoid carcinoma cells by the following method. Cells were grown in roller bottles in dMEM/F12 media (Gibco/BRL) containing 10% fetal calf serum. Approximately 10^9 cells were lysed in 2 volumes of buffer containing 20 mM N-[2-hydroxyethyl]piperazine-N′-[2-ethane sulfonic acid](Hepes), pH 7.4, 5 mM ethylene glycol-bis(β-aminoethyl ether) N,N,N′,N′-tetraacetic acid (EGTA), 1% Triton X-100, 10% glycerol, 0.1 mM sodium orthovanadate, 5 mM sodium fluoride, 4 mM pyrophosphate, 4 mM benzamide, 1 mM dithiothreitol (DTT), 80 μg/mL aprotinin, 40 μg/mL leupeptin, and 1 mM phenylmethyl sulfonyl fluoride (PMSF). After centrifugation at 25,000×g for 10 minutes, the supernatant was applied to a fast Q sepharose column (Pharmacia Biotech., Inc., Piscataway, N.J.) and eluted with a linear gradient from 0.1 M NaCl to 0.4 M NaCl in 50 mM Hepes, 10% glycerol, pH 7.4. Enzyme active fractions were pooled, divided into aliquots, and stored at −100° C.
Enzyme assays for IC50 determinations were performed in 96-well filter plates (Millipore MADVN6550, Millipore, Bedford, Mass). […] The wells are then washed 5 times with 0.2 mL of 10% TCA and ^32P incorporation determined with a Wallac beta plate counter (Wallac, Inc., Gaithersburg, Pa.).

T1 sequence (P00533 25-1210 limits assumed): as above
Chain of ErbB-2 (P04626 23-1255, species assumed): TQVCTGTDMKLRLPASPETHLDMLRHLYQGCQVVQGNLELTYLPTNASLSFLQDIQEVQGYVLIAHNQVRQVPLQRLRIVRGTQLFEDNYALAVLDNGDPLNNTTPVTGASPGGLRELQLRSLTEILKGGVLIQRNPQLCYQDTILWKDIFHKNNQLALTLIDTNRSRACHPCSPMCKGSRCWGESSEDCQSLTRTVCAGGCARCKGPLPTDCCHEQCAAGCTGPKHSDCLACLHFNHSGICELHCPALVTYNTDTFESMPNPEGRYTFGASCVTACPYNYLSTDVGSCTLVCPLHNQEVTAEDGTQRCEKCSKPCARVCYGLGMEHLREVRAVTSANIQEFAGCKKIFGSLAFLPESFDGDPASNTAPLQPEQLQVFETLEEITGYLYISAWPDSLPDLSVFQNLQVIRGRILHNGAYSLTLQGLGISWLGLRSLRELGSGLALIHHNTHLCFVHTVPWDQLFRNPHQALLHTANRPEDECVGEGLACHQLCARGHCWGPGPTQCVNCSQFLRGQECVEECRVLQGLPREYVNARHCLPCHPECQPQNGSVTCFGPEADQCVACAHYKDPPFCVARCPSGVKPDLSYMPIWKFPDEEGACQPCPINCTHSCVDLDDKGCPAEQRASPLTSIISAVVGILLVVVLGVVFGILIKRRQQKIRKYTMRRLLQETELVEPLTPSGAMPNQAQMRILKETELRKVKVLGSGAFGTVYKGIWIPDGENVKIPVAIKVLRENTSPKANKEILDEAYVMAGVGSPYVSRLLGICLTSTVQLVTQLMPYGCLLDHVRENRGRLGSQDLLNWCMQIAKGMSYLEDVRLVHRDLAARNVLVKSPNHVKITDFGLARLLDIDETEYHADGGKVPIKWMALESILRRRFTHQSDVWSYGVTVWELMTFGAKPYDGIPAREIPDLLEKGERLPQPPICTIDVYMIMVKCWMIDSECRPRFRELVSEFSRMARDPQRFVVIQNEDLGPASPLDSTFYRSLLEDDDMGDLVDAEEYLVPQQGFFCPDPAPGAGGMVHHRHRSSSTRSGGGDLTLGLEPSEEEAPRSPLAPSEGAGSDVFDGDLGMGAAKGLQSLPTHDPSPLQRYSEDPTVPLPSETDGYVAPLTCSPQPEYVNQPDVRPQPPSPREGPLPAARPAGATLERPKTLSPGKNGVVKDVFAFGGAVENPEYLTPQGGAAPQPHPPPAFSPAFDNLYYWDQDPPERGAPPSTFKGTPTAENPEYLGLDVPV

| IC50 (EGFR [1]) | IC50 (ErbB-2) | % EGFR enzyme activity after 8 hours washoff (EGFR [2]) | IC50 [3] | melting point | Compound |
| --- | --- | --- | --- | --- | --- |
| 4.2 nM | 7.6 nM | 0% | 3.6 nM |  | C=CC(=O)Nc1ccc2ncnc(Nc3ccc(OCc4ccccc4)cc3)c2c1 [Example 2, N-(4-[4-Benzyloxyanilino]quinazolin-6-yl)acrylamide] |
|  |  |  |  | 227 to 229 °C | C=CC(=O)Nc1ccc2ncnc(Nc3ccc(OCc4ccccc4)cc3)c2c1 (as salt: salt) [Example 2, N-(4-[4-Benzyloxyanilino]quinazolin-6-yl)acrylamide] |
|  |  |  |  | 185 to 191 °C | C=CC(=O)Nc1ccc2ncnc(Nc3ccc(Oc4ccccc4)cc3)c2c1 (as salt: salt) [Example 1, N-(4-[4-Phenoxyanilino]quinazolin-6-yl)acrylamide] |
| 4.8 nM |  | 0% | 5.8 nM |  | C=CC(=O)Nc1ccc2ncnc(Nc3ccc(Oc4ccccc4)cc3)c2c1 [Example 1, N-(4-[4-Phenoxyanilino]quinazolin-6-yl)acrylamide] |

Source: patent publication US6562818B1, “Irreversible inhibitors of tyrosine kinases” (Warner-Lambert Company, priority 1997, dated 2003)
